In the supplement of paper PMC3937590:

Columns and labels:
Experiment in all cases: -log10 GI50 (growth inhibition 50%) (-log10(M)); higher = more potent growth inhibition
HCC70 = system: HCC70
Summary of the method: (§1)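 Breast cancer cell lines were treated with each compound for 72 hours at nine doses in 1:5 serial dilution, in triplicate, and luminescence was read against a time-zero plate. A Gompertz curve was fitted to the dose-response data by nonlinear least squares to obtain GI50, the molar concentration giving the set level of growth inhibition, which is reported as its negative logarithm. The logarithm is base 10, and values equal to the top dose carry a < qualifier.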

MDAMB361 = system: MDAMB361
Summary of the method: as §1

MDAMB231 = system: MDAMB231
Summary of the method: as §1

HCC1954 = system: HCC1954
Summary of the method: as §1

HCC2185 = system: HCC2185
Summary of the method: as §1

MCF12A = system: MCF12A
Summary of the method: as §1

ZR75B = system: ZR75B
Summary of the method: as §1

SUM52PE = system: SUM52PE
Summary of the method: as §1

MDAMB157 = system: MDAMB157
Summary of the method: as §1

HCC1937 = system: HCC1937
Summary of the method: as §1

HCC1419 = system: HCC1419
Summary of the method: as §1

UACC812 = system: UACC812
Summary of the method: as §1

184A1 = system: 184A1
Summary of the method: as §1

LY2 = system: LY2
Summary of the method: as §1

BT549 = system: BT549
Summary of the method: as §1

SUM185PE = system: SUM185PE
Summary of the method: as §1

184B5 = system: 184B5
Summary of the method: as §1

HCC1428 = system: HCC1428
Summary of the method: as §1

-log10 GI50 (MDAMB361)	-log10 GI50 (MDAMB231)	-log10 GI50 (HCC1954)	-log10 GI50 (HCC2185)	-log10 GI50 (MDAMB157)	-log10 GI50 (HCC1937)	-log10 GI50 (HCC1419)	-log10 GI50 (BT549)	-log10 GI50 (HCC1428)	Compound	-log10 GI50 (HCC70)	-log10 GI50 (MCF12A)	-log10 GI50 (ZR75B)	-log10 GI50 (SUM52PE)	-log10 GI50 (UACC812)	-log10 GI50 (184A1)	-log10 GI50 (LY2)	-log10 GI50 (SUM185PE)	-log10 GI50 (184B5)
4.34	4.09	4.42	4.88	4.07	4.47	4.02	4.61	3.86	O=C(O)C1(C(=O)O)CCC1.[NH2-].[NH2-].[Pt+2] [Carboplatin]	4.82	4.05	3.52	4.71	4.76	4.9	4.34	3.94	5.29
5.92	5.21	6.68	6.9	6.17	6.09	6.59	5.73	6.28	O=C1NC(=O)/C(=C/c2ccc3nccc(-c4ccncc4)c3c2)S1	6.75	6.38	6.51	6.82	6.62	7.78	5.87	7.13	–
4.82	< 3.78	5.64	4.57	4.48	4.89	5.92	4.33	< 3.78	COc1cc2ncnc(Nc3cccc(Cl)c3)c2cc1OC [AG1478]	4.21	7.16	< 3.78	< 3.78	–	–	< 3.78	< 3.78	–
6.63	6.44	6.74	7.29	6.49	6.49	6.33	6.94	5.92	COc1cccc2c1C(=O)c1c(O)c3c(c(O)c1C2=O)C[C@@](O)(C(=O)CO)C[C@@H]3O[C@H]1C[C@H](N)[C@H](O)[C@H](C)O1 [Doxorubicin]	5.36	7.34	6.67	7.01	7.12	6.95	6.71	6.51	–
< 4.78	6.86	6.79	< 4.78	6.57	< 4.78	7.23	5.55	< 4.78	CC(=O)Nc1cccc(-n2c(=O)n(C3CC3)c(=O)c3c(Nc4ccc(I)cc4F)n(C)c(=O)c(C)c32)c1	8.18	8.68	< 4.78	6.92	< 4.78	8.67	< 4.78	4.9	–
7.29	6.11	7.5	6.93	–	6.88	7.41	7.51	8.39	C=CCNC1=C2C[C@@H](C)C[C@H](OC)[C@H](O)[C@@H](C)/C=C(\C)[C@H](OC(N)=O)[C@@H](OC)/C=C\C=C(/C)C(=O)NC(=CC1=O)C2=O [17-AAG]	6.62	7.48	7.27	7.79	7.96	7.93	6.99	7.47	7.56
6.65	6.57	6.7	6.91	6.31	6.69	6.15	6.7	5.88	COc1cccc2c1C(=O)c1c(O)c3c(c(O)c1C2=O)C[C@@](O)(C(=O)CO)C[C@@H]3O[C@H]1C[C@H](N)[C@@H](O)[C@H](C)O1 [Epirubicin]	6.35	7.26	6.94	7.42	–	6.68	6.86	6.39	8.25
6.03	5.67	6.55	7.39	6.4	–	6.45	7.62	6.35	CC[C@@]1(O)C(=O)OCc2c1cc1n(c2=O)Cc2cc3c(CN(C)C)c(O)ccc3nc2-1 [Topotecan]	6.3	7.58	7.26	8.08	7.3	6.88	6.59	7.2	7.16
–	5.93	4.51	7.61	–	5.97	4.81	8.08	3.58	Nc1ccn([C@@H]2O[C@H](CO)[C@@H](O)C2(F)F)c(=O)n1 [Gemcitabine]	4.58	7.17	7.34	–	7.75	6.16	7.62	6.44	6.14
9	8.39	6.24	5.23	7.89	6.65	6.45	8.02	5.66	CCC1=C[C@@H]2CN(C1)Cc1c([nH]c3ccccc13)[C@@](C(=O)OC)(c1cc3c(cc1OC)N(C)[C@H]1[C@@](O)(C(=O)OC)[C@H](OC(C)=O)[C@]4(CC)C=CCN5CC[C@]31[C@@H]54)C2 [Vinorelbine]	7.66	7.91	8.05	7.97	7.13	–	7.88	8.08	–
< 3.78	< 3.78	4.54	4.21	4.09	< 3.78	< 3.78	< 3.78	5.49	CC/C(=C(\c1ccccc1)c1ccc(OCCN(C)C)cc1)c1ccccc1 [Tamoxifen]	< 3.78	4.89	–	4.28	–	< 3.78	4.25	5.05	–
7.43	5.91	7.6	7.41	7.48	7.36	5.72	7.3	5.99	CC(C)Oc1ccc(C(=O)N[C@H](CNC(=O)CN(C)C)Cc2ccc(-c3cn4cccc([C@H](C)O)c4n3)cc2)cc1Cl	7.68	6.1	7.18	7.65	7.94	5.1	–	5.43	5.17
